In ChEMBL document CHEMBL1154828, “Dimeric guaianolides and sesquiterpenoids from Artemisia anomala” (J Nat Prod, 2010):
Active and inactive are the calls of the source. The calls are words filed in the database; no cut-off is given here.

Columns and labels:
[1] = biological target: T1, Prostaglandin G/H synthase 2 (Homo sapiens) (UniProt P35354); experiment: Inhibition of COX2 at 50 uM
T1 sequence (whole entry): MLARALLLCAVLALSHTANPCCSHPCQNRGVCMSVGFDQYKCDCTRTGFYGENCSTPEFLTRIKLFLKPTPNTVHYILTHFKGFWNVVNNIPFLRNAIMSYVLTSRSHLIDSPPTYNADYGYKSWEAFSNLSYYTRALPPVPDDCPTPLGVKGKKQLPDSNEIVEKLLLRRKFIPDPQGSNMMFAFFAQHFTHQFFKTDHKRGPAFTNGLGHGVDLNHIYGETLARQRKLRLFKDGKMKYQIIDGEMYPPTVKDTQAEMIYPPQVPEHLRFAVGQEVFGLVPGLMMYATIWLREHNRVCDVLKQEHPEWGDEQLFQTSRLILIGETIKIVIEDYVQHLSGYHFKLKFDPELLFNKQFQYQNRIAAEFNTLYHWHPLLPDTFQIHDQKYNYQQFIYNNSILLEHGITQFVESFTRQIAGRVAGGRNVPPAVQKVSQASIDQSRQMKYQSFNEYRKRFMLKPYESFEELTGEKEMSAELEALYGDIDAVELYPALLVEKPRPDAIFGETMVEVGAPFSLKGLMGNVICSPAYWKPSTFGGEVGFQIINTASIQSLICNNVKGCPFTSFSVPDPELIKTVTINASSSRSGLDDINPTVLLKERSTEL

Bel-7402 = experiment: Cytotoxicity activity against human Bel7402 cells after 72 hrs by MTT assay; type: functional, cell-based; settings: Bel-7402, 72 h
A549 = experiment: Cytotoxicity activity against human A549 cells after 72 hrs by MTT assay; type: functional, cell-based
HCT-8 = experiment: Cytotoxicity activity against human HCT8 cells after 72 hrs by MTT assay; type: functional, cell-based; settings: HCT-8, 72 h
BGC-823 = experiment: Cytotoxicity activity against human BGC823 cells after 72 hrs by MTT assay; type: functional, cell-based; settings: BGC-823, 72 h
A2780 = experiment: Cytotoxicity activity against human A2780 cells after 72 hrs by MTT assay; type: functional, cell-based; settings: A2780, 72 h

| SMILES | inhibition [1] | IC50 (Bel-7402) | Activity (A549) | IC50 (HCT-8) | IC50 (BGC-823) | IC50 (A2780) |
| --- | --- | --- | --- | --- | --- | --- |
| C=C(C(=O)O)C(CCC(C)=O)CC1=C(C)C(=O)CC1=O (stereo not drawn) | 98.2% |  |  |  |  |  |
| C=C1C(=O)O[C@H]2[C@H]1CC[C@](C)(O)[C@]13O[C@H]1[C@H](Cl)[C@](C)(O)[C@H]23 | 98.4% |  |  |  |  |  |
| C=C1C(=O)O[C@@H]2[C@@H]3C4(C=C[C@@]3(C)C3(C4)C(=O)O[C@@H]4[C@H]5C(C)=CC(=O)C5=C(C)C[C@H](O)[C@H]43)[C@@](C)(OC(C)=O)CC[C@@H]12 (stereo partly drawn) [ARTANOMALIDE D] | 99.5% | 3000 nM | inactive | 1900 nM | 8500 nM | 1800 nM |
